# Read-outs that look alike come from different tables or passages of the source.
# Columns and labels:
# VSC neurons = format: in vivo, Xenopus
# Experimental: (§1) Neuropharmacology. […] For selective ablation of VSCDA neurons, MPTP was bath-applied in the dark to larvae for 8 h at stage 41. 100 mM deprenyl (Sigma) was bath-applied to inhibit monoamine oxidase.
# Immunocytochemistry. The number of neurons in the VSC was quantified by counting the cells within the core and the surrounding annular region in sections of the diencephalon.
# A pharmacological approach to test the involvement of electrical activity and calcium signaling was then performed. […] agarose beads loaded with calcein acetoxymethylester (calcein-AM) tracer were implanted in the roof of the hypothalamus above the VSC to evaluate the time course of drug delivery.
# Xenopus larvae = assay: Skin pigmentation adaptation to illumination/background in larvae; format: in vivo; conditions: for light-dependent changes in pigmentation (reduction in pigmented area) driven by newly induced TH/NPY annular neurons: MPTP-light and control larvae, sulpiride 10 nM during 30-min exposure to white background (FIG. 6c)
# Experimental: Illumination experiments. The optimal condition for altering skin pigmentation and numbers of TH neurons were determined by raising larvae under two illumination conditions. In the first, larvae were placed on black, grey or white backgrounds (corresponding to N2.25, N7.25 or N9.5 on the Munsell neutral value scale of a monochromatic colour wheel) with constant illumination (331 lux (lx)). In the second, larvae on a white, grey or black background were exposed to constant illumination (6,560 lx, measured with a light meter (Sper Scientific)-equivalent to shady illumination on a sunny day), or to constant dark or to 12 h light/12 h dark. […] For some tests of the functional significance of newly TH neurons, animals were raised under different light/background conditions and a conditioning step of 30 min light/white background exposure was imposed to achieve similar levels of skin pigmentation before comparing light or dark adaptation between these groups.
# as §1
# OB interneurons = assay: Neurotransmitter expression in olfactory bulb interneurons after kin/non-kin odorant exposure; format: in vivo, Xenopus laevis
smiles,measurement,setting,value
CCN1CCCC1CNC(=O)c1cc(S(N)(=O)=O)ccc1OC (centres unmarked) [sulpiride],number of TH VSC neurons,VSC neurons; sulpiride-treated larvae,not affected
same,light-dependent changes in pigmentation (reduction in pigmented area) driven by newly induced TH/NPY annular neurons,Xenopus larvae,blocked
same,light-dependent changes in pigmentation (reduction in pigmented area) driven by newly induced TH/NPY annular neurons,Xenopus larvae; listed as Sulpiride,blocks
same,changes in skin pigmentation in response to altered illumination,"Xenopus larvae; stage-42 larvae raised in the dark, 10 nM sulpiride for 30 min (FIG. 1c)",blocked
"CC(=O)OCOC(=O)CN(CC(=O)OCOC(C)=O)c1ccccc1OCCOc1ccccc1N(CC(=O)OCOC(C)=O)CC(=O)OCOC(C)=O [BAPTA-AM, 1,2-bis-(o-aminophenoxy)-ethane-N,N,N9,N9-tetraacetic acid, tetraacetoxymethyl ester]",number of TH neurons or NPY/TH annular neurons in the VSC,"VSC neurons; drug-loaded agarose beads implanted above the VSC, 2 h white light following 24 h in the dark (FIG. 4b, c)",no increase
same,NPY/TH colocalization in VSC sections of bead-implanted larvae,"VSC neurons; larvae exposed to 2 h light, versus white-adapted control and calcein bead (FIG. 4B)",absent
same,changes in NT phenotype (dopamine/GABA coexpression) after kin or nonkin exposure,"OB interneurons; local delivery, stage 45 larvae, 48 hr odorant exposure",prevents
Oc1cc2c(cc1O)C(c1ccccc1)CNCC2 (centres unmarked) [SKF-38393],effect on pigmentation behaviour,"Xenopus larvae; D1 receptor agonist and antagonist, opposite effect to the D2 ligands",darkening
"NC1=N[C@H](O)[C@H]2[C@H]3O[C@]4(O)O[C@@H]([C@@H](O)[C@@]2(N1)[C@@H]4O)[C@]3(O)CO [TTX, tetrodotoxin]",number of TH neurons or NPY/TH annular neurons in the VSC,VSC neurons; in vivo,no increase
same,changes in NT phenotype (dopamine/GABA coexpression) after kin or nonkin exposure,OB interneurons; in vivo,prevents
"CN1CC=C(c2ccccc2)CC1 [MPTP, 1-methyl-4-phenyl-1,2,3,6-tetrahydropyridine]",changes in pigmentation after 30 min exposure to light / white background,"Xenopus larvae; dark-raised, MPTP-treated larvae (MPTP-dark group, FIG. 6c)",abolished

# Source: US20120283193A1, “MANIPULATION OF BRAIN IN A CIRCUIT-SPECIFIC MANNER” (priority 2009, published 2012)
